Experimental data as given in patent US8895504B2, “Amylin derivatives” (priority 2008, dated 2014).
*1 amine or outer side, *2 acyl side, *3 side chain or, on linkers, in order; H or OH if unused. Where a SMILES comes first, the peptide text is derived from it. Bridges are numbered along the chain shown (N, C = ends). The star is where a group is joined. C20 diacid = O=C(O)CCCCCCCCCCCCCCCCCCC(=O)*; γGlu = O=C(O)[C@H](CCC(=O)[*:2])N[*:1]

target: T1, Amylin 3(a) receptor (human calcitonin receptor (CTa) and RAMP-3) (Homo sapiens, UniProt O60896+P30988); test: Luciferase assay (III), BHK Amylin 3(a)//CRE-luc cells; format: cell-based; details: BHK cells with Amylin 3(a) receptor and CRE luciferase reporter, 4 hours incubation; read-out: Potency Luciferase
T1 construct: expressed in transfected cells; host or cells: BHK570 cells, stably transfected with a CRE-luciferase reporter
How it was run: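 Read-out is CRE-driven luciferase luminescence, taken 30 min after LucLite addition at room temperature. Compounds were incubated 4 h at 37° C in assay medium (10% FBS, 10 mM Hepes, pH 7,4). The cell line is BHK570 co-transfected with human calcitonin receptor CTa and RAMP-3, seeded overnight before use.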

T1 sequence (O60896 24-148): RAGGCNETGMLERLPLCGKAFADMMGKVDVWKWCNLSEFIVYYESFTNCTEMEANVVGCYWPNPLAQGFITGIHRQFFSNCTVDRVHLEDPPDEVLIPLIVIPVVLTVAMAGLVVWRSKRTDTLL
T1 sequence (P30988 25-474): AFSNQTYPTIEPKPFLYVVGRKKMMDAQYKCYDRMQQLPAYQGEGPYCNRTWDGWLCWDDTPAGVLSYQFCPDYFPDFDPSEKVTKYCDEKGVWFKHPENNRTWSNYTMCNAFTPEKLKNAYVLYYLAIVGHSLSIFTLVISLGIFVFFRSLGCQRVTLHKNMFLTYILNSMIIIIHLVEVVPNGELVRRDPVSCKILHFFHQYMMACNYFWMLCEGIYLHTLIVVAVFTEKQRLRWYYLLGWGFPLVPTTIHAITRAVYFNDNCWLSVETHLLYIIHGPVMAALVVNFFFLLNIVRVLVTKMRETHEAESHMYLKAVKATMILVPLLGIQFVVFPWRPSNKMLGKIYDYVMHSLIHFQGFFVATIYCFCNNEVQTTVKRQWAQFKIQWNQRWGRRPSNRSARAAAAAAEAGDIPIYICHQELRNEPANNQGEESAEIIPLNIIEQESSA

| Structure (SMILES) | EC50 [nM] |
| --- | --- |
| CC[C@H](C)[C@H](NC(=O)[C@@H]1CCCN1C(=O)CNC(=O)[C@H](Cc1ccccc1)NC(=O)[C@H](CC(N)=O)NC(=O)[C@H](CC(N)=O)NC(=O)[C@H](CO)NC(=O)[C@H](CO)NC(=O)[C@H](Cc1c[nH]cn1)NC(=O)[C@@H]1CCCN1C(=O)[C@H](CC(C)C)NC(=O)[C@H](Cc1ccccc1)NC(=O)[C@H](CC(N)=O)NC(=O)[C@H](C)NC(=O)[C@H](CC(C)C)NC(=O)[C@H](CCCNC(=N)N)NC(=O)[C@H](CCC(N)=O)NC(=O)[C@@H](NC(=O)[C@H](C)NC(=O)[C@@H]1CSSC[C@H](NC(=O)[C@H](CCCCN)NC(=O)[C@H](CCCNC(=N)N)NC(=O)CC[C@H](NC(=O)CCCCCCCCCCCCCCCCCCC(=O)O)C(=O)O)C(=O)N[C@@H](CC(N)=O)C(=O)N[C@@H]([C@@H](C)O)C(=O)N[C@@H](C)C(=O)N[C@@H]([C@@H](C)O)C(=O)N1)[C@@H](C)O)C(=O)N[C@@H](CC(C)C)C(=O)N1CCC[C@H]1C(=O)N1CCC[C@H]1C(=O)N[C@H](C(=O)N[C@@H](CC(N)=O)C(=O)N[C@H](C(=O)NCC(=O)N[C@@H](CO)C(=O)N[C@@H](CC(N)=O)C(=O)N[C@H](C(=O)N[C@@H](Cc1ccc(O)cc1)C(N)=O)[C@@H](C)O)C(C)C)[C@@H](C)O [Example 21, N-alpha-[(S)-4-Carboxy-4-(19-carboxynonadecanoylamino)butyryl]-Arg-[Pro17]-pramlintide] ({C20 diacid-γGlu}-RKCNTATCATQRLANFLPHSSNNFGPILPPTNVGSNTY-NH2; disulfide 3-8) | 2 |
| CC[C@H](C)[C@H](NC(=O)[C@@H]1CCCN1C(=O)CNC(=O)[C@H](Cc1ccccc1)NC(=O)[C@H](CC(N)=O)NC(=O)[C@H](CC(N)=O)NC(=O)[C@H](CO)NC(=O)[C@H](CO)NC(=O)[C@H](Cc1c[nH]cn1)NC(=O)[C@H](CO)NC(=O)[C@H](CC(C)C)NC(=O)[C@H](Cc1ccccc1)NC(=O)[C@H](CC(N)=O)NC(=O)[C@H](C)NC(=O)[C@H](CC(C)C)NC(=O)[C@H](CCCNC(=N)N)NC(=O)[C@H](CCC(N)=O)NC(=O)[C@@H](NC(=O)[C@H](C)NC(=O)[C@@H]1CSSC[C@H](NC(=O)CC[C@H](NC(=O)CCCCCCCCCCCCCCCCCCC(=O)O)C(=O)O)C(=O)N[C@@H](CC(N)=O)C(=O)N[C@@H]([C@@H](C)O)C(=O)N[C@@H](C)C(=O)N[C@@H]([C@@H](C)O)C(=O)N1)[C@@H](C)O)C(=O)N[C@@H](CC(C)C)C(=O)N1CCC[C@H]1C(=O)N1CCC[C@H]1C(=O)N[C@H](C(=O)N[C@@H](CC(N)=O)C(=O)N[C@H](C(=O)NCC(=O)N[C@@H](CO)C(=O)N[C@@H](CC(N)=O)C(=O)N[C@H](C(=O)N[C@@H](Cc1ccc(O)cc1)C(N)=O)[C@@H](C)O)C(C)C)[C@@H](C)O [Example 11, N-alpha-[(S)-4-Carboxy-4-(19-carboxynonadecanoylamino)butyryl]-[Ser17]-pramlintide (2-37)] ({C20 diacid-γGlu}-CNTATCATQRLANFLSHSSNNFGPILPPTNVGSNTY-NH2; disulfide 1-6) | 0.1 |
| CC[C@H](C)[C@H](NC(=O)[C@@H]1CCCN1C(=O)CNC(=O)[C@H](Cc1ccccc1)NC(=O)[C@H](CC(N)=O)NC(=O)[C@H](CC(N)=O)NC(=O)[C@H](CO)NC(=O)[C@H](CO)NC(=O)[C@H](Cc1c[nH]cn1)NC(=O)CNC(=O)[C@H](CC(C)C)NC(=O)[C@H](Cc1ccccc1)NC(=O)[C@H](CC(N)=O)NC(=O)[C@H](C)NC(=O)[C@H](CC(C)C)NC(=O)[C@H](CCCNC(=N)N)NC(=O)[C@H](CCC(N)=O)NC(=O)[C@@H](NC(=O)[C@H](C)NC(=O)[C@@H]1CSSC[C@H](NC(=O)CC[C@H](NC(=O)CCCCCCCCCCCCCCCCCCC(=O)O)C(=O)O)C(=O)N[C@@H](CC(N)=O)C(=O)N[C@@H]([C@@H](C)O)C(=O)N[C@@H](C)C(=O)N[C@@H]([C@@H](C)O)C(=O)N1)[C@@H](C)O)C(=O)N[C@@H](CC(C)C)C(=O)N1CCC[C@H]1C(=O)N1CCC[C@H]1C(=O)N[C@H](C(=O)N[C@@H](CC(N)=O)C(=O)N[C@H](C(=O)NCC(=O)N[C@@H](CO)C(=O)N[C@@H](CC(N)=O)C(=O)N[C@H](C(=O)N[C@@H](Cc1ccc(O)cc1)C(N)=O)[C@@H](C)O)C(C)C)[C@@H](C)O [Example 13, N-alpha-[(S)-4-Carboxy-4-(19-carboxynonadecanoylamino)butyryl]-[Gly17]-pramlintide (2-37)] ({C20 diacid-γGlu}-CNTATCATQRLANFLGHSSNNFGPILPPTNVGSNTY-NH2; disulfide 1-6) | 0.4 |
| CC[C@H](C)[C@H](NC(=O)[C@@H]1CCCN1C(=O)CNC(=O)[C@H](Cc1ccccc1)NC(=O)[C@H](CC(N)=O)NC(=O)[C@H](CC(N)=O)NC(=O)[C@H](CO)NC(=O)[C@H](CO)NC(=O)[C@H](Cc1c[nH]cn1)NC(=O)[C@H](C)NC(=O)[C@H](CC(C)C)NC(=O)[C@H](Cc1ccccc1)NC(=O)[C@H](CC(N)=O)NC(=O)[C@H](C)NC(=O)[C@H](CC(C)C)NC(=O)[C@H](CCCNC(=N)N)NC(=O)[C@H](CCC(N)=O)NC(=O)[C@@H](NC(=O)[C@H](C)NC(=O)[C@@H]1CSSC[C@H](NC(=O)CC[C@H](NC(=O)CCCCCCCCCCCCCCCCCCC(=O)O)C(=O)O)C(=O)N[C@@H](CC(N)=O)C(=O)N[C@@H]([C@@H](C)O)C(=O)N[C@@H](C)C(=O)N[C@@H]([C@@H](C)O)C(=O)N1)[C@@H](C)O)C(=O)N[C@@H](CC(C)C)C(=O)N1CCC[C@H]1C(=O)N1CCC[C@H]1C(=O)N[C@H](C(=O)N[C@@H](CC(N)=O)C(=O)N[C@H](C(=O)NCC(=O)N[C@@H](CO)C(=O)N[C@@H](CC(N)=O)C(=O)N[C@H](C(=O)N[C@@H](Cc1ccc(O)cc1)C(N)=O)[C@@H](C)O)C(C)C)[C@@H](C)O [Example 12, N-alpha-[(S)-4-Carboxy-4-(19-carboxynonadecanoylamino)butyryl]-[Ala17]-pramlintide (2-37)] ({C20 diacid-γGlu}-CNTATCATQRLANFLAHSSNNFGPILPPTNVGSNTY-NH2; disulfide 1-6) | 0.1 |
| CC[C@H](C)[C@H](NC(=O)[C@@H]1CCCN1C(=O)CNC(=O)[C@H](Cc1ccccc1)NC(=O)[C@H](CC(N)=O)NC(=O)[C@H](CC(N)=O)NC(=O)[C@H](CO)NC(=O)[C@H](CO)NC(=O)[C@H](Cc1c[nH]cn1)NC(=O)[C@H](Cc1c[nH]cn1)NC(=O)[C@H](CC(C)C)NC(=O)[C@H](Cc1ccccc1)NC(=O)[C@H](CCC(=O)O)NC(=O)[C@H](C)NC(=O)[C@H](CC(C)C)NC(=O)[C@H](CCCNC(=N)N)NC(=O)[C@H](CCC(N)=O)NC(=O)[C@@H](NC(=O)[C@H](C)NC(=O)[C@@H]1CSSC[C@H](NC(=O)[C@H](CCC(=O)O)NC(=O)[C@H](CCCNC(=N)N)NC(=O)[C@H](CCC(=O)O)NC(=O)[C@H](CCC(=O)O)NC(=O)CCCCCCCCCCCCCCCCCCC(=O)O)C(=O)N[C@@H](CC(N)=O)C(=O)N[C@@H]([C@@H](C)O)C(=O)N[C@@H](C)C(=O)N[C@@H]([C@@H](C)O)C(=O)N1)[C@@H](C)O)C(=O)N[C@@H](CC(C)C)C(=O)N1CCC[C@H]1C(=O)N1CCC[C@H]1C(=O)N[C@H](C(=O)N[C@@H](CCC(=O)O)C(=O)N[C@H](C(=O)NCC(=O)N[C@@H](CO)C(=O)N[C@@H](CC(N)=O)C(=O)N[C@H](C(=O)N[C@@H](Cc1ccc(O)cc1)C(N)=O)[C@@H](C)O)C(C)C)[C@@H](C)O [Example 1, N-alpha-(19-carboxynonadecanoyl)-Glu-Glu-Arg-[Glu1,Glu14,His17,Glu31]-pramlintide] ({C20 diacid}-EERECNTATCATQRLAEFLHHSSNNFGPILPPTEVGSNTY-NH2; disulfide 5-10) | 0.9 |
| CC[C@H](C)[C@H](NC(=O)[C@@H]1CCCN1C(=O)CNC(=O)[C@H](Cc1ccccc1)NC(=O)[C@H](CC(N)=O)NC(=O)[C@H](CCC(N)=O)NC(=O)[C@H](CO)NC(=O)[C@H](CO)NC(=O)[C@H](Cc1c[nH]cn1)NC(=O)[C@H](Cc1c[nH]cn1)NC(=O)[C@H](CC(C)C)NC(=O)[C@H](Cc1ccccc1)NC(=O)[C@H](CC(N)=O)NC(=O)[C@H](C)NC(=O)[C@H](CC(C)C)NC(=O)[C@H](CCCNC(=N)N)NC(=O)[C@H](CCC(N)=O)NC(=O)[C@@H](NC(=O)[C@H](C)NC(=O)[C@@H]1CSSC[C@H](NC(=O)[C@H](CCCNC(=N)N)NC(=O)[C@H](Cc2c[nH]cn2)NC(=O)[C@H](Cc2c[nH]cn2)NC(=O)[C@H](CCC(=O)O)NC(=O)CC[C@H](NC(=O)CCCCCCCCCCCCCCCCCCC(=O)O)C(=O)O)C(=O)N[C@@H](CC(N)=O)C(=O)N[C@@H]([C@@H](C)O)C(=O)N[C@@H](C)C(=O)N[C@@H]([C@@H](C)O)C(=O)N1)[C@@H](C)O)C(=O)N[C@@H](CC(C)C)C(=O)N1CCC[C@H]1C(=O)N1CCC[C@H]1C(=O)N[C@H](C(=O)N[C@@H](CC(N)=O)C(=O)N[C@H](C(=O)NCC(=O)N[C@@H](CO)C(=O)N[C@@H](CC(N)=O)C(=O)N[C@H](C(=O)N[C@@H](Cc1ccc(O)cc1)C(N)=O)[C@@H](C)O)C(C)C)[C@@H](C)O [Example 63, N-alpha-[(S)-4-Carboxy-4-(19-carboxynonadecanoylamino)butyryl]-GluHis-His-[Arg1,His17,Gln21]-pramlintide] ({C20 diacid-γGlu}-EHHRCNTATCATQRLANFLHHSSQNFGPILPPTNVGSNTY-NH2; disulfide 5-10) | 0.1 |
